Experimental data: patent US20100240683A1, “COMBINATION THERAPY, COMPOSITION AND METHODS FOR THE TREATMENT OF CARDIOVASCULAR DISORDERS” (Syndromex Ltd., priority 2007, published 2010)
Entries after “also recorded” stand apart in the source; their conditions may differ. Read-outs that look alike come from different tables or passages of the source. Each block holds one molecule with its values, some of them ahead of it.

Assays:
Guinea pigs = assay: Hypolipidemic effect in Guinea pigs model (plasma TG, cholesterol, lipoproteins); type: in vivo, Guinea pig; settings: for effect on plasma cholesterol / effect on plasma triglycerides (TG): gavage, days 21 and 22, result in words
Method: • Guinea pigs (400-500 g) were obtained from Harlan (Israel) or Harlan (Netherlands). Animals were treated by gavage with Medica 16αα, Medica 16ββ and Simvastatin as indicated in 1% CMC for the specified treatment periods. During treatment period the animals were weighed and observed daily.
Non-fasted guinea pigs were anesthetized with ketamine (75 mg/kg body weight) and xylazine (6 mg/kg body weight), followed by S.C. abdominal injections of 2% lignocaine. Anesthetized animals were bled into tubes containing EDTA. Plasma chylomicrons were removed by centrifugation (20 min, 30K rpm, TST 55.5 rotor). Plasma TG was assayed by Roche/Hitachi kit. Plasma cholesterol was assayed by Roche Diagnostic's kit.
Chylomicrons-free plasma was subjected to continuous KBr-gradient centrifugation (24 h, 40K rpm, SW41 rotor), followed by fractionating gradient tubes into 0.5 ml fractions. TG, cholesterol and protein of each fraction were measured as described above. […]
Guinea pigs were treated by gavage with M16αα, M16ββ or with Simvastatin, weighed and observed daily. Plasma triglycerides (TG) and cholesterol, as well as plasma lipoproteins and their composition were examined on days 21 and 22 (as specified in the following tables) of the experiments, as described in Experimental procedures. As clearly shown by Table 3 and FIG. 1, treatment with M16αα decreases plasma triglycerides (TG).

CYP3A4 = CYP3A4 (Homo sapiens, UniProt P08684)
CYP3A4, sequence (P08684 whole entry): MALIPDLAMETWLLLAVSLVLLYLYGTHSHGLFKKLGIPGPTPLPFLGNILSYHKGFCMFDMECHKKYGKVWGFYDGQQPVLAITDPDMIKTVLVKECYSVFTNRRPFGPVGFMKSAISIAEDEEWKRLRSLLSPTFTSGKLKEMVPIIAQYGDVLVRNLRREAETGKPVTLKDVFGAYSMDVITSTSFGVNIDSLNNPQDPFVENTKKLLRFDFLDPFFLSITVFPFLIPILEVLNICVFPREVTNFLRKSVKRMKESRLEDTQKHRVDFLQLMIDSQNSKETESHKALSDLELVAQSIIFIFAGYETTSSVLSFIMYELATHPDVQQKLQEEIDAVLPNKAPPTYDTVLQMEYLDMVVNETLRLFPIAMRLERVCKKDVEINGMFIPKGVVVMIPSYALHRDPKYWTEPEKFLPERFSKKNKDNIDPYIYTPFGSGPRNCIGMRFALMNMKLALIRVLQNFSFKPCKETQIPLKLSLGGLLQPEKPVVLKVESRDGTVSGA

CYP2B6 [1] = target: T1, CYP2B6 (Homo sapiens, UniProt P20813); assay: in vitro
T1 sequence (P20813 1-491): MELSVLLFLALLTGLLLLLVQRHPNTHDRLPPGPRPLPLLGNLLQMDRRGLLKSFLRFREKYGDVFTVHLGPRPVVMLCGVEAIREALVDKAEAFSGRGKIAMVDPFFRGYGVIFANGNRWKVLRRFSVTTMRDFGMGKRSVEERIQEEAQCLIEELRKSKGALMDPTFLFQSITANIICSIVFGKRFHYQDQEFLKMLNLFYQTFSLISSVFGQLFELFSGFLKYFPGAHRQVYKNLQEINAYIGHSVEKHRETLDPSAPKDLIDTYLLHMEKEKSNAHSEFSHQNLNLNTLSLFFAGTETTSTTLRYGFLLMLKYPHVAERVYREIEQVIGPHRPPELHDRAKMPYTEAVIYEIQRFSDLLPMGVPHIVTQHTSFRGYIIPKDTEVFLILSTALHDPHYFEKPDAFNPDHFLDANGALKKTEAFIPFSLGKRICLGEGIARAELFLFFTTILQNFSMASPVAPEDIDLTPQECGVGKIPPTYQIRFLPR

CYP2C9 [2] = target: T2, CYP2C9 (Homo sapiens, UniProt P11712); assay: in vitro
T2 sequence (P11712 whole entry): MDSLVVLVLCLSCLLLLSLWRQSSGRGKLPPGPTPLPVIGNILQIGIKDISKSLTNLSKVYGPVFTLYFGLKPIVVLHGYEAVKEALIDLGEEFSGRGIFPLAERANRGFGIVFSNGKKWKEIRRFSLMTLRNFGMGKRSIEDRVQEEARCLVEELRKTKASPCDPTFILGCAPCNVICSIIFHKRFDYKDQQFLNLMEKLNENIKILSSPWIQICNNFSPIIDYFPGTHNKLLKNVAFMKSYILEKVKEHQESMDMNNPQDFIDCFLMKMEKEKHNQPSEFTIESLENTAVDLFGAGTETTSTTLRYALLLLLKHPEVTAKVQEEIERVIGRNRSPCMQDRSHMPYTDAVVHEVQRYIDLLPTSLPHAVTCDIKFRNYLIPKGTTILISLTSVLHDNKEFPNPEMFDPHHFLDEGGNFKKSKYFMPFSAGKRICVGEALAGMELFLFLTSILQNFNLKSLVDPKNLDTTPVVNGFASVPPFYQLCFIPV

CYP2B6 [3] = target: T1, CYP2B6; assay: Fluorimetric CYP inhibition assay, CYP2B6-EFC
CYP2C9 [4] = target: T2, CYP2C9; assay: Fluorimetric CYP inhibition assay, CYP2C9-MFC
healthy male volunteers = assay: Evaluation of safety clinical and laboratory parameters in healthy male volunteers; type: in vivo, human; settings: 1 to 4 weeks, varying doses, during treatment and one month after
Method: Fifteen healthy male volunteers aged 25-52 were treated for periods ranging from 1 to 4 weeks with varying doses of M16ββ.

[5] = system: dyslipidemic non-diabetic patients; assay: Hypolipidemic effect of M16ββ in dyslipidemic non-diabetic patients; type: in vivo, human; settings: p.o. 200 mg/day to 800 mg/day
Method: Eight dyslipidemic non-diabetic patients were subjected to 4-5 weeks maintenance period on placebo followed by a period of 3-5 months of treatment p.o. with increasing M16ββ doses ranging from 200 mg/day to 800 mg/day.

[6] = system: obese dyslipidemic, insulin resistant non-diabetic patients; assay: Sensitization to insulin in obese dyslipidemic, insulin resistant non-diabetic patients; type: in vivo, human
Method: Five obese dyslipidemic, insulin resistant non-diabetic patients were subjected to 4 weeks maintenance period on placebo followed by treatment p.o. with increasing daily doses ranging from 30-600 mg M16ββ per dose for a period of 4 weeks.

[7] = gavage 10 mg/kgbw, 21 days, n = 12
[8] = p.o. 30-600 mg per dose daily, 4 weeks
[9] = gavage 24 mg/kg/bw, 22 days, n = 10

Weight gain (Guinea pigs; [7]): 201 ± 8 g
% Inhibition (set 1) (CYP3A4; 0.05 μM): 5%
% Inhibition (set 2) (CYP3A4; 0.05 μM): 1%
% Inhibition (set 1) (CYP3A4; 3.7 μM): 1%
% Inhibition (set 1) (CYP3A4; 33.33 μM): 4%
inhibition at 0.05 μM (CYP2B6 [1]; % Inhibition (set 1)): 0%
inhibition at 0.41 μM (CYP2B6 [1]; % Inhibition (set 1)): 7%
inhibition at 1.23 μM (CYP2B6 [1]; % Inhibition (set 1)): 4%
inhibition at 3.7 μM (CYP2B6 [1]; % Inhibition (set 1)): 29%
inhibition at 11.11 μM (CYP2B6 [1]; % Inhibition (set 1)): 8%
inhibition at 33.33 μM (CYP2B6 [1]; % Inhibition (set 1)): 17%
inhibition at 100 μM (CYP2B6 [1]; % Inhibition (set 1)): 27%
inhibition at 0.05 μM (CYP2B6 [1]; % Inhibition (set 2)): 2%
inhibition at 0.41 μM (CYP2B6 [1]; % Inhibition (set 2)): 0%
inhibition at 1.23 μM (CYP2B6 [1]; % Inhibition (set 2)): 3%
inhibition at 3.7 μM (CYP2B6 [1]; % Inhibition (set 2)): 2%
inhibition at 11.11 μM (CYP2B6 [1]; % Inhibition (set 2)): 8%
inhibition at 33.33 μM (CYP2B6 [1]; % Inhibition (set 2)): 12%
inhibition at 100 μM (CYP2B6 [1]; % Inhibition (set 2)): 28%
inhibition at 0.05 μM (CYP2C9 [2]; % Inhibition (set 1)): 4%
inhibition at 0.41 μM (CYP2C9 [2]; % Inhibition (set 1)): 5%
inhibition at 1.23 μM (CYP2C9 [2]; % Inhibition (set 1)): 2%
inhibition at 3.7 μM (CYP2C9 [2]; % Inhibition (set 1)): 6%
inhibition at 11.11 μM (CYP2C9 [2]; % Inhibition (set 1)): 15%
inhibition at 33.33 μM (CYP2C9 [2]; % Inhibition (set 1)): 15%
inhibition at 100 μM (CYP2C9 [2]; % Inhibition (set 1)): 29%
inhibition at 0.05 μM (CYP2C9 [2]; % Inhibition (set 2)): 0%
inhibition at 0.41 μM (CYP2C9 [2]; % Inhibition (set 2)): 5%
inhibition at 1.23 μM (CYP2C9 [2]; % Inhibition (set 2)): 9%
inhibition at 3.7 μM (CYP2C9 [2]; % Inhibition (set 2)): 0%
inhibition at 11.11 μM (CYP2C9 [2]; % Inhibition (set 2)): 7%
inhibition at 33.33 μM (CYP2C9 [2]; % Inhibition (set 2)): 14%
inhibition at 100 μM (CYP2C9 [2]; % Inhibition (set 2)): 31%
IC50 (CYP2B6 [3]): > 100 µM
IC50 (CYP2C9 [4]): > 100 µM
SMILES: CC(C)(CCCCCCCCCCCCC(C)(C)C(=O)O)C(=O)O [M16αα, 2,2,15,15-tetramethylhexadecane-1,16-dioic acid]
Liver/body weight % (Guinea pigs; [7]): 6.3 ± 0.1%
effect on plasma cholesterol (Guinea pigs): pronounced decrease
effect on plasma triglycerides (TG) (Guinea pigs): reduces; also recorded: decreases
effect on LDL-cholesterol levels (Guinea pigs; lipoprotein profile, FIG. 2, result in words): reduces

Weight gain (Guinea pigs; [9]): 173 ± 8.5 g
% Inhibition (set 2) (CYP3A4; 1.23 μM): 12%
% Inhibition (set 2) (CYP3A4; 3.7 μM): 2%
inhibition at 0.05 μM (CYP2B6 [1]; % Inhibition (set 1)): 1%
inhibition at 0.41 μM (CYP2B6 [1]; % Inhibition (set 1)): 1%
inhibition at 1.23 μM (CYP2B6 [1]; % Inhibition (set 1)): 4%
inhibition at 3.7 μM (CYP2B6 [1]; % Inhibition (set 1)): 0%
inhibition at 11.11 μM (CYP2B6 [1]; % Inhibition (set 1)): 5%
inhibition at 33.33 μM (CYP2B6 [1]; % Inhibition (set 1)): 7%
inhibition at 100 μM (CYP2B6 [1]; % Inhibition (set 1)): 20%
inhibition at 0.05 μM (CYP2B6 [1]; % Inhibition (set 2)): 0%
inhibition at 0.41 μM (CYP2B6 [1]; % Inhibition (set 2)): 0%
inhibition at 1.23 μM (CYP2B6 [1]; % Inhibition (set 2)): 4%
inhibition at 3.7 μM (CYP2B6 [1]; % Inhibition (set 2)): 0%
inhibition at 11.11 μM (CYP2B6 [1]; % Inhibition (set 2)): 6%
inhibition at 33.33 μM (CYP2B6 [1]; % Inhibition (set 2)): 7%
inhibition at 100 μM (CYP2B6 [1]; % Inhibition (set 2)): 19%
inhibition at 0.05 μM (CYP2C9 [2]; % Inhibition (set 1)): 0%
inhibition at 0.41 μM (CYP2C9 [2]; % Inhibition (set 1)): 0%
inhibition at 1.23 μM (CYP2C9 [2]; % Inhibition (set 1)): 3%
inhibition at 3.7 μM (CYP2C9 [2]; % Inhibition (set 1)): 13%
inhibition at 11.11 μM (CYP2C9 [2]; % Inhibition (set 1)): 19%
inhibition at 33.33 μM (CYP2C9 [2]; % Inhibition (set 1)): 34%
inhibition at 100 μM (CYP2C9 [2]; % Inhibition (set 1)): 50%
inhibition at 0.05 μM (CYP2C9 [2]; % Inhibition (set 2)): 0%
inhibition at 0.41 μM (CYP2C9 [2]; % Inhibition (set 2)): 3%
inhibition at 1.23 μM (CYP2C9 [2]; % Inhibition (set 2)): 10%
inhibition at 3.7 μM (CYP2C9 [2]; % Inhibition (set 2)): 8%
inhibition at 11.11 μM (CYP2C9 [2]; % Inhibition (set 2)): 18%
inhibition at 33.33 μM (CYP2C9 [2]; % Inhibition (set 2)): 26%
inhibition at 100 μM (CYP2C9 [2]; % Inhibition (set 2)): 44%
IC50 (CYP2B6 [3]): > 100 µM
IC50 (CYP2C9 [4]): > 100 µM
SMILES: CC(C)(CCCCCCCCCCC(C)(C)CC(=O)O)CC(=O)O [M16ββ, 3,3,14,14-tetramethylhexadecane-1,16-dioic acid]
drug-related changes in safety clinical (body weight, blood pressure, pulse, ECG) and laboratory (hematology, blood chemistry, urinary analysis) parameters (healthy male volunteers): no drug-related changes were detected
time into treatment at which hypolipidemic effect was observed [5]: less than 1 month
Plasma LDL-C ([5]; 3-5 months): remained unaffected
decrease in plasma triglycerides (mean) ([5]; 3-5 months): 55%
increase in HDL-C ([5]; 3-5 months): 13%
plasma fibrinogen ([5]; 3-5 months): decrease
tolerability ([5]; 3-5 months): well tolerated in all dosages
hypolipidemic efficacy ([6]; at daily doses below 200 mg): substantial hypolipidemic efficacy
HOMA (homeostatic model assessment) [6, 8]: decrease
LDL-C [6, 8]: no change
VLDL-C [6, 8]: robust decrease
glucose uptake [6, 8]: increased
plasma insulin clearance [6, 8]: increase
plasma insulin levels [6, 8]: decrease
sensitization to insulin [6, 8]: increased sensitization to insulin
tolerability [6, 8]: well tolerated in all dosages
Liver/body weight % (Guinea pigs; [9]): 5.8 ± 0.2%
Plasma cholesterol (Guinea pigs; [9]): 31 ± 2.2 mg %
effect on plasma cholesterol (Guinea pigs): small but significant decrease
effect on plasma triglycerides (TG) (Guinea pigs): clear decrease
